This passage reports IC50 and GI50 results from patent US20220024921A1, “1,3,4-OXADIAZOLONE COMPOUND AND PHARMACEUTICAL” (NIPPON SHINYAKU CO., LTD., priority 2018, published 2022).

Test [1] has as its target T1, PIM1 serine/threonine kinase (Homo sapiens, UniProt P11309).
T1 construct: purchased Carna Bioscience, Inc
Put plainly: PIM1 serine/threonine kinase inhibitory effect. The format is biochemical. The following applies: PIM1 serine/threonine kinase activity; ATP 40 μM; 30° C., 30 minutes. The method in brief: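 Compounds were tested in duplicate from 0.01 to 10000 nM final against PIM1 kinase (0.15 μg/ml). The reaction ran for 30 minutes at 30° C with 40 μM ATP and 0.5 μM biotin-tagged substrate at pH 7.0. Phosphorylation was read by time-resolved FRET (OD665/OD620) after 1 h; IC50 by non-linear fit.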

Test [2] has as its target PIM1 transgenic cells (Ba/F3) (Homo sapiens, UniProt P11309). Description: Proliferation inhibitory effect on PIM1 transgenic cells. It is filed as cell-based, mouse. The note with it: proliferation inhibition, 72 hours, Cell Counting Kit-8, read-out: PIM1 IC50. The method in brief:
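Mouse Ba/F3 pro-B cells were retrovirally transduced with human PIM1 so that their proliferation depends on PIM1. Cells were treated with compound at 1–10000 nM final for 72 h, then read by CCK-8 (OD450−OD650). Inhibition was set against DMSO (0%) and no-cell blank (100%), and IC50 was obtained by two-parameter logistic regression.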
(Formazan colour is commonly taken as a measure of viable cells.)

Structures can show the parent of a compound that is named as a salt.

PIM1 transgenic cells (Ba/F3), sequence (P11309 whole entry, stated change not applied): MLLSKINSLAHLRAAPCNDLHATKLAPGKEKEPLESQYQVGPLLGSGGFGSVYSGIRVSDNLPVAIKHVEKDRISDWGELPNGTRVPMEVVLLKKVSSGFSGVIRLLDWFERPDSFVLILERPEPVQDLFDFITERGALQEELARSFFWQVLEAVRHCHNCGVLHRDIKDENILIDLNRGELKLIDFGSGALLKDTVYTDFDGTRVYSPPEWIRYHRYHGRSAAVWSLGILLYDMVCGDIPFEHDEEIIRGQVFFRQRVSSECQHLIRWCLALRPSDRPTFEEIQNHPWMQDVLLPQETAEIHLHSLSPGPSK
T1 sequence (P11309 whole entry): as the sequence (P11309 whole entry, stated change not applied) above

Broadly, the IC50 is the midpoint of a concentration-inhibition curve. A lower IC50 goes with greater potency. As for `C[C@@H]1C[C@H]([C@H](C)Nc2cc(-c3n[nH]c(=O)o3)cc(F)c2OC(F)F)CCN1` [Example 216, 5-[4-(difluoromethoxy)-3-fluoro-5-({(1S)-1-[(2R,4R)-2-methylpiperidin-4-yl]ethyl}amino)phenyl]-1,3,4-oxadiazol-2(3H)-one], half-maximal inhibition in test [1] (IC50) was put at 0.0035 µM. Also, the GI50 in test [2] turned out to be 0.045 µM.
Taken in the same sequence, the figures for `C[C@H](Nc1c(F)c(-c2n[nH]c(=O)o2)cc(Cl)c1Cl)C1CCNCC1` [Example 87, 5-(4,5-dichloro-2-fluoro-3-{[(1S)-1-(piperidin-4-yl)ethyl]amino}phenyl)-1,3,4-oxadiazol-2(3H)-one hydrochloride] were 0.0012 µM and 0.064 µM.
Take `CC[C@H](Nc1cc(-c2n[nH]c(=O)o2)ccc1C(F)(F)F)[C@H]1CC[C@H](N)CC1` [Example 181, 5-[3-({(1S)-1-[(1r,4S)-4-aminocyclohexyl]propyl}amino)-4-(trifluoromethyl)phenyl]-1,3,4-oxadiazol-2(3H)-one hydrochloride]: the IC50 in test [1] stood at 0.0035 µM. For the same compound, in test [2], the GI50 was found to be 0.068 µM.
Take `O=c1[nH]nc(-c2ccc(Cl)c(NCC3CCNCC3)c2)o1` [Example 47, 5-(4-chloro-3-{[(piperidin-4-yl)methyl]amino}phenyl)-1,3,4-oxadiazol-2(3H)-one hydrochloride]: the IC50 in test [1] was determined as 0.0076 µM. The GI50 in test [2] was determined as 0.82 µM.
Taken in the same sequence, the figures for `C[C@H](Nc1cc(-c2n[nH]c(=O)o2)ccc1C(F)(F)F)[C@H]1CC[C@H](NCCO)CC1` [Example 201, 5-[3-{[(1S)-1-{(1r,4S)-4-[(2-hydroxyethyl)amino]cyclohexyl}ethyl]amino}-4-(trifluoromethyl)phenyl]-1,3,4-oxadiazol-2(3H)-one hydrochloride] were 0.0087 µM and 0.56 µM.
As to `C[C@H](Nc1cc(Cl)cc(-c2n[nH]c(=O)o2)c1)C1CCNCC1` [Example 105, 5-(3-chloro-5-{[(1S)-1-(piperidin-4-yl)ethyl]amino}phenyl)-1,3,4-oxadiazol-2(3H)-one dihydrochloride], in test [1], 0.012 µM corresponded to half-maximal inhibition (IC50). Also, the GI50 in test [2] was determined as 0.55 µM.
In test [1], `O=c1[nH]nc(-c2ccc(C(F)(F)F)c(NC[C@@H]3CCCNC3)c2)o1` [Example 54, 5-[3-({[(3R)-piperidin-3-yl]methyl}amino)-4-(trifluoromethyl)phenyl]-1,3,4-oxadiazol-2(3H)-one hydrochloride] registered an IC50 of 0.013 µM. The GI50 in test [2] is 1.2 µM.
Taken in the same sequence, the figures for `C[C@H](Nc1cc(-c2n[nH]c(=O)o2)cc(F)c1OC(F)F)C1CCNCC1` [Example 212, 5-[4-(difluoromethoxy)-3-fluoro-5-{[(1S)-1-(piperidin-4-yl)ethyl]amino}phenyl]-1,3,4-oxadiazol-2(3H)-one] were 0.0021 µM and 0.073 µM.
In turn, `C[C@@H]1CNCC[C@@H]1[C@H](C)Nc1cc(-c2n[nH]c(=O)o2)cc(F)c1Cl` [Example 222, 5-[4-chloro-3-fluoro-5-({(1S)-1-[(3S,4S)-3-methylpiperidin-4-yl]ethyl}amino)phenyl]-1,3,4-oxadiazol-2(3H)-one] had an IC50 in test [1] of 0.0024 µM. The GI50 in test [2] was found to be 0.019 µM.
Taken in the same sequence, the figures for `N[C@H]1CC[C@H](Nc2cc(-c3n[nH]c(=O)o3)cc(F)c2Cl)CC1` [Example 40, 5-(3-{[(1r,4r)-4-aminocyclohexyl]amino}-4-chloro-5-fluorophenyl)-1,3,4-oxadiazol-2(3H)-one hydrochloride] were 0.0062 µM and 0.44 µM.
Taken in the same sequence, the figures for `O=c1[nH]nc(-c2cc(Br)c3cnn(CC4CCNCC4)c3c2)o1` [Example 124, 5-{4-bromo-1-[(piperidin-4-yl)methyl]-1H-indazol-6-yl}-1,3,4-oxadiazol-2(3H)-one hydrochloride] were 0.026 µM and 4.1 µM.
Taken in the same sequence, the figures for `C[C@H](Nc1cc(-c2n[nH]c(=O)o2)ccc1C(F)(F)F)C1CC2(CCNCC2)C1` [Example 142, 5-[3-{[(1S)-1-(7-azaspiro[3.5]nonan-2-yl)ethyl]amino}-4-(trifluoromethyl)phenyl]-1,3,4-oxadiazol-2(3H)-one hydrochloride] were 0.011 µM and 0.22 µM.
In test [1], `CC[C@H](Nc1cc(-c2n[nH]c(=O)o2)ccc1C(F)(F)F)C1CCNCC1` [Example 138, 5-[3-{[(1S)-1-(piperidin-4-yl)propyl]amino}-4-(trifluoromethyl)phenyl]-1,3,4-oxadiazol-2(3H)-one hydrochloride] came in with an IC50 of 0.004 µM. For the same compound, the GI50 in test [2] came to 0.073 µM.
Taken in the same sequence, the figures for `O=c1[nH]nc(-c2ccc(C(F)(F)F)c(NCC3(F)CCCNC3)c2)o1` (stereo not drawn) [Example 109, 5-[3-{[(3-fluoropiperidin-3-yl)methyl]amino}-4-(trifluoromethyl)phenyl]-1,3,4-oxadiazol-2(3H)-one hydrochloride] were 0.028 µM and 0.48 µM.
Taken in the same sequence, the figures for `CC1(C)[C@H](CNc2cc(-c3n[nH]c(=O)o3)ccc2C(F)(F)F)C[C@@H]1N` [Example 166, 5-[3-({[(1R,3S)-3-amino-2,2-dimethylcyclobutyl]methyl}amino)-4-(trifluoromethyl)phenyl]-1,3,4-oxadiazol-2(3H)-one hydrochloride] were 0.0023 µM and 0.026 µM.
Taken in the same sequence, the figures for `N[C@H]1CO[C@H](C2CC2c2cc(-c3n[nH]c(=O)o3)ccc2C(F)(F)F)OC1` (stereo partly drawn) [Example 161, 5-[3-{2-[(2r,5r)-5-amino-1,3-dioxan-2-yl]cyclopropyl}-4-(trifluoromethyl)phenyl]-1,3,4-oxadiazol-2(3H)-one hydrochloride] were 0.029 µM and 1 µM.
In turn, `CC(Oc1cc(-c2n[nH]c(=O)o2)ccc1C(F)(F)F)C1CCNCC1` (stereo not drawn) [Example 239, 5-{3-[1-(piperidin-4-yl)ethoxy]-4-(trifluoromethyl)phenyl}-1,3,4-oxadiazol-2(3H)-one] returned an IC50 in test [1] of 0.01 µM. For the same compound, in test [2], the GI50 is 0.25 µM.
Taken in the same sequence, the figures for `C[C@H](Nc1cc(-c2n[nH]c(=O)o2)ccc1C(F)(F)F)[C@@H]1CCC[C@H](N)C1` [Example 191, 5-[3-({(1S)-1-[(1R,3S)-3-aminocyclohexyl]ethyl}amino)-4-(trifluoromethyl)phenyl]-1,3,4-oxadiazol-2(3H)-one hydrochloride] were 0.011 µM and 0.16 µM.
Taken in the same sequence, the figures for `O=c1[nH]nc(-c2ccc(C(F)(F)F)c(/C=C/C3CCNCC3)c2)o1` [Example 30, 5-{3-[(E)-2-(piperidin-4-yl)ethenyl]-4-(trifluoromethyl)phenyl}-1,3,4-oxadiazol-2(3H)-one hydrochloride] were 0.024 µM and 0.97 µM.
Take `CC1(C)[C@@H](CNc2cc(-c3n[nH]c(=O)o3)ccc2C(F)(F)F)C[C@H]1N` [Example 176, 5-[3-({[(1S,3R)-3-amino-2,2-dimethylcyclobutyl]methyl}amino)-4-(trifluoromethyl)phenyl]-1,3,4-oxadiazol-2(3H)-one]: the IC50 in test [1] was found to be 0.0096 µM. For the same compound, the GI50 in test [2] turned out to be 0.088 µM.
Taken in the same sequence, the figures for `O=c1[nH]nc(-c2ccc(C(F)(F)F)c(NCC3C4CCC3CNC4)c2)o1` (stereo not drawn) [Example 133, 5-[3-{[(3-azabicyclo[3.2.1]octan-8-yl)methyl]amino}-4-(trifluoromethyl)phenyl]-1,3,4-oxadiazol-2(3H)-one hydrochloride] were 0.008 µM and 0.2 µM.
For `CN[C@H]1C[C@@H]([C@H](C)Nc2cc(-c3n[nH]c(=O)o3)cc(F)c2C(F)(F)F)C1` [Example 203, 5-[3-fluoro-5-({(1S)-1-[(1s,3R)-3-(methylamino)cyclobutyl]ethyl}amino)-4-(trifluoromethyl)phenyl]-1,3,4-oxadiazol-2(3H)-one hydrochloride], the IC50 in test [1] came out at 0.0036 µM. Besides, in test [2], the GI50 was determined as 0.054 µM.
Taken in the same sequence, the figures for `N[C@H]1CC[C@H](CN2CCCc3ccc(-c4n[nH]c(=O)o4)cc32)CC1` [Example 244, 5-(1-{[(1r,4r)-4-aminocyclohexyl]methyl}-1,2,3,4-tetrahydroquinolin-7-yl)-1,3,4-oxadiazol-2(3H)-one] were 0.011 µM and 0.14 µM.
Taken in the same sequence, the figures for `C[C@H](Nc1cc(-c2n[nH]c(=O)o2)cc(S(F)(F)(F)(F)F)c1)C1CCNCC1` [Example 107, 5-[3-(pentafluoro-λ^6-sulfanyl)-5-{[(1S)-1-(piperidin-4-yl)ethyl]amino}phenyl]-1,3,4-oxadiazol-2(3H)-one hydrochloride] were 0.025 µM and 6.5 µM.
Taken in the same sequence, the figures for `O=c1[nH]nc(-c2ccc(C(F)(F)F)c(N[C@@H](C(F)F)C3CCNCC3)c2)o1` [Example 113, 5-[3-{[(1R)-2,2-difluoro-1-(piperidin-4-yl)ethyl]amino}-4-(trifluoromethyl)phenyl]-1,3,4-oxadiazol-2(3H)-one hydrochloride] were 0.0036 µM and 0.081 µM.
In turn, `C[C@H](Nc1cc(-c2n[nH]c(=O)o2)ccc1C(F)(F)F)C1CCCNCCC1` [Example 162, 5-[3-{[(1S)-1-(azocan-5-yl)ethyl]amino}-4-(trifluoromethyl)phenyl]-1,3,4-oxadiazol-2(3H)-one hydrochloride] returned an IC50 in test [1] of 0.0087 µM. Besides, the GI50 in test [2] is 0.14 µM.
Taken in the same sequence, the figures for `O=c1[nH]nc(-c2ccc(C(F)(F)F)c(NC[C@@H]3CCNC[C@H]3F)c2)o1` [Example 127, 5-[3-({[(3S,4S)-3-fluoropiperidin-4-yl]methyl}amino)-4-(trifluoromethyl)phenyl]-1,3,4-oxadiazol-2(3H)-one hydrochloride] were 0.021 µM and 0.44 µM.
